Results from PubChem BioAssay (NCI).
Where “and” joins values, the source holds several entries; their conditions need not be identical. Identical values can stand only once.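 Tested at 5 concentrations; 48 h exposure; 96-well plates; endpoints linearly interpolated, else capped at highest concentration. At the GI50, growth is halved. TGI marks complete inhibition of growth.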

Columns and labels:
Experiment in all cases: NCI anticancer screen, dose series, 48 h
SK-MEL-28 melanoma = tested on: SK-MEL-28 melanoma
NCI-H522 lung = tested on: NCI-H522 lung
LXFL 529 NSCLC = tested on: LXFL 529 NSCLC
NCI-H226 lung = tested on: NCI-H226 lung
DMS 273 small cell lung = tested on: DMS 273 small cell lung
HCT-15 colon = tested on: HCT-15 colon
DMS 114 small cell lung = tested on: DMS 114 small cell lung
DLD-1 colon = tested on: DLD-1 colon
SW-620 colon = tested on: SW-620 colon
K-562 leukemia = tested on: K-562 leukemia
DU-145 prostate = tested on: DU-145 prostate
HS 578T breast = tested on: HS 578T breast

Compound	TGI (SK-MEL-28 melanoma)	TGI (NCI-H522 lung)	TGI (LXFL 529 NSCLC)	TGI (NCI-H226 lung)	TGI (DMS 273 small cell lung)	TGI (HCT-15 colon)	TGI (DMS 114 small cell lung)	TGI (DLD-1 colon)	TGI (SW-620 colon)	TGI (K-562 leukemia)	TGI (DU-145 prostate)	TGI (HS 578T breast)	GI50 (HCT-15 colon)
COC(=O)c1cc2c(=O)n(C)c3ccccc3n2c1C(=O)OC	> 100 µM	73.7 µM	> 100 µM	81.2 µM	> 100 µM	> 100 µM	> 100 µM	> 100 µM	> 100 µM	> 100 µM	–	–	–
C=C[C@@H](C)[C@]1(C(=O)OC)CCCC12OCCO2	> 100 µM	> 100 µM	> 100 µM	> 100 µM	> 100 µM	> 100 µM	> 100 µM	> 100 µM	–	> 100 µM	–	–	–
N#C/C(=C\c1cc(O)cc(O)c1)C(N)=O	> 100 µM	66.2 µM	> 100 µM	> 100 µM	> 100 µM	> 100 µM	> 100 µM	> 100 µM	> 100 µM	> 100 µM	–	–	–
COC(COC(N)=O)C1=C(N2CC2)C(=O)C(C)=C(N2CC2)C1=O (stereo not drawn)	0.484 µM	0.156 µM	0.672 µM	0.299 µM	0.0752 µM	0.762 µM	0.38 µM	1.03 µM	0.703 µM	1.76 µM	0.0264 µM	–	–
COC(=O)[C@@H]1c2cc3c(c(O)c2[C@@H](OC2OC(C)C(OC)C(C)(OC)C2OC)C[C@]1(C)O)C(=O)c1c(O)cc2c(c1C3=O)O[C@H]1O[C@]2(C)[C@H](O)[C@@H](N(C)C)[C@@H]1O (stereo partly drawn)	0.0699 µM and 0.0273 µM	0.0638 µM and 0.0131 µM	1.28 µM	0.0718 µM and 0.0966 µM	0.0282 µM	1.14 µM	0.00521 µM	0.258 µM and 0.436 µM	0.292 µM and 1.37 µM	0.399 µM and 0.162 µM	0.455 µM	0.147 µM	0.117 µM
O=C1[C@H]2ON(c3ccccc3)C(c3ccc([N+](=O)[O-])cc3)[C@H]2C(=O)N1c1ccc(Cc2ccc(N3C(=O)[C@@H]4ON(c5ccccc5)C(c5ccc([N+](=O)[O-])cc5)[C@@H]4C3=O)cc2)cc1 (stereo partly drawn)	> 100 µM	> 100 µM	> 100 µM	> 100 µM	> 100 µM	> 100 µM	> 100 µM	> 100 µM	> 100 µM	> 100 µM	–	–	–
CC1(C)OC2C(CCP(=O)(O)O)OC(c3nc(C(N)=O)cs3)C2O1 (stereo not drawn)	> 100 µM	> 100 µM	> 100 µM	> 100 µM	> 100 µM	> 100 µM	> 100 µM	> 100 µM	> 100 µM	> 100 µM	–	–	–
Cc1nc2sccn2c1C(=O)NN	> 100 µM	> 100 µM	> 100 µM	> 100 µM	> 100 µM	> 100 µM	> 100 µM	> 100 µM	> 100 µM	> 100 µM	–	–	–
CC(C)(C)C1=CC(=C(P(=O)(O)O)P(=O)(O)O)C=C(C(C)(C)C)C1=O	> 50 µM	> 50 µM	> 50 µM	> 50 µM	> 50 µM	> 50 µM	> 50 µM	> 50 µM	> 50 µM	> 50 µM	–	–	–
COc1ccc(C(c2ccccc2)(c2ccc(OC)cc2)N2C(=O)NC3C(CCCCC(=O)NCCCCCCOP(OCCC#N)N(C(C)C)C(C)C)SCC32)cc1 (stereo not drawn)	29 µM	27.3 µM	25.2 µM	30.4 µM	25.3 µM	35.6 µM	36.8 µM	29.4 µM	43.8 µM	32.2 µM	–	–	–
O=C(C(=O)c1cc2ccccc2[nH]1)c1cc2ccccc2[nH]1	> 347 µM	114 µM	> 347 µM	> 347 µM	> 347 µM	> 347 µM	> 347 µM	> 347 µM	> 347 µM	> 347 µM	–	–	–
C=CCC1(CN(C)C)CC/C(=C\c2ccc(OC)cc2)C1=O (stereo not drawn)	> 100 µM	81.9 µM	> 100 µM	> 100 µM	> 100 µM	> 100 µM	> 100 µM	> 100 µM	> 100 µM	> 100 µM	–	–	–
CCOC(OC(C)=O)[C@@H]1C=C[C@H](C)N(c2ccc([N+](=O)[O-])cc2)O1 (stereo partly drawn)	9.62 µM	8.97 µM	10.8 µM	14 µM	13.4 µM	6.77 µM	16.9 µM	11.1 µM	9.2 µM	> 26.7 µM	–	–	–
O=C(/C=C\c1ccccc1O)c1ccc(O)cc1O	> 100 µM	> 100 µM	> 100 µM	> 100 µM	> 100 µM	> 100 µM	> 100 µM	> 100 µM	22.7 µM	> 100 µM	–	–	–
Cc1ccc(C)c(N2C(=O)C(=O)C(c3nc4ccccc4s3)/C(=N/N)C2=O)c1 (stereo not drawn)	> 100 µM	> 100 µM	> 100 µM	> 100 µM	> 100 µM	> 100 µM	> 100 µM	> 100 µM	> 100 µM	> 100 µM	–	–	–
COc1cc2cc(OC(C)=O)c3cc4c(cc3c2c(OC)c1OC)OCO4	> 100 µM	> 100 µM	> 100 µM	> 100 µM	> 100 µM	> 100 µM	> 100 µM	> 100 µM	> 100 µM	> 100 µM	–	–	–
O=C1C=C(Nc2ccc(Cl)cc2Cl)c2ccccc2C1=O	> 100 µM	> 100 µM	> 100 µM	87.2 µM	79.5 µM	> 100 µM	64.1 µM	> 100 µM	> 100 µM	> 100 µM	–	–	–
